From publication PMC4959829 (Biochemical Pharmacology, 2016)
Like-named read-outs stand apart in the source and are kept apart here.

Assays:
[1] = test system: hERG (WT); details: cited from earlier work
[2] = test system: hERG (WT); assay: Literature IhERG block, WT hERG in Xenopus oocytes; format: cell-based; details: human, Xenopus oocytes expressing WT hERG; Oocyte, room temperature; estimated from single dose data with Hill equation, h = 1; read-out: WT IC50 (estimated)
[3] = test system: hERG (WT); details: cited from earlier work; remark: listed apart in the source
[4] = target: Y652A hERG (Homo sapiens, UniProt Q12809, Y652A); details: cited from earlier work
[5] = target: F656A hERG (Homo sapiens, UniProt Q12809, F656A); details: cited from earlier work
[6] = read-out: WT IC50, Oocyte, room temperature

Sequence of F656A hERG (Q12809 whole entry F656A): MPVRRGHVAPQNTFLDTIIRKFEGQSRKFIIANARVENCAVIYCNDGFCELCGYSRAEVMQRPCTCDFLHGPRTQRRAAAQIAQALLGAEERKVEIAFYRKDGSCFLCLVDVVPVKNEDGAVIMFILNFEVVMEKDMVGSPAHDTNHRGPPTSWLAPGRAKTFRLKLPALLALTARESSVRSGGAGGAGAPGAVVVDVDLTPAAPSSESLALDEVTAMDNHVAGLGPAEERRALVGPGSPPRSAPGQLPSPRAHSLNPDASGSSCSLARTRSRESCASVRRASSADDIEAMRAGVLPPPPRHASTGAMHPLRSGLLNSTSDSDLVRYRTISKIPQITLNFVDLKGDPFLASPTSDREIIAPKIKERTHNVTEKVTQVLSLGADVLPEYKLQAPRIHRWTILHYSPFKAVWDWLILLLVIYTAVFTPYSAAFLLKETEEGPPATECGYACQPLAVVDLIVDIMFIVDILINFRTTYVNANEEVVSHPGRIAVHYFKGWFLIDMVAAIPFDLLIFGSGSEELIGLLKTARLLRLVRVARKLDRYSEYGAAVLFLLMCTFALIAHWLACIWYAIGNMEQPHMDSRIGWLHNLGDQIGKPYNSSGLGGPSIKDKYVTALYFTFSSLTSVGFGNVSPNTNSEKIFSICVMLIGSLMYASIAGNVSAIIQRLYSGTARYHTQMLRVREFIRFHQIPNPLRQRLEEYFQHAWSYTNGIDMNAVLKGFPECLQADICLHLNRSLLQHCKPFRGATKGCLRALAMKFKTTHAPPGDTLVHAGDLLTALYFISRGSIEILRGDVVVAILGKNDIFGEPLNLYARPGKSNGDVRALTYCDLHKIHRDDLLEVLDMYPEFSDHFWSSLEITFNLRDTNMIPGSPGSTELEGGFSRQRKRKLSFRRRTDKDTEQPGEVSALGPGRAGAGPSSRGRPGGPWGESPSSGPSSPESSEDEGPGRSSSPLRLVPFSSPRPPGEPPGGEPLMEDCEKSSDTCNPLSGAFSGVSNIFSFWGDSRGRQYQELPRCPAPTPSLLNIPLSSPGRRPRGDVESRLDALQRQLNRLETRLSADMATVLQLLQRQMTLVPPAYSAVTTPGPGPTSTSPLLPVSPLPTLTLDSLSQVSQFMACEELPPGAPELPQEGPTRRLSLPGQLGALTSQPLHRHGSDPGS
Sequence of Y652A hERG (Q12809 whole entry Y652A): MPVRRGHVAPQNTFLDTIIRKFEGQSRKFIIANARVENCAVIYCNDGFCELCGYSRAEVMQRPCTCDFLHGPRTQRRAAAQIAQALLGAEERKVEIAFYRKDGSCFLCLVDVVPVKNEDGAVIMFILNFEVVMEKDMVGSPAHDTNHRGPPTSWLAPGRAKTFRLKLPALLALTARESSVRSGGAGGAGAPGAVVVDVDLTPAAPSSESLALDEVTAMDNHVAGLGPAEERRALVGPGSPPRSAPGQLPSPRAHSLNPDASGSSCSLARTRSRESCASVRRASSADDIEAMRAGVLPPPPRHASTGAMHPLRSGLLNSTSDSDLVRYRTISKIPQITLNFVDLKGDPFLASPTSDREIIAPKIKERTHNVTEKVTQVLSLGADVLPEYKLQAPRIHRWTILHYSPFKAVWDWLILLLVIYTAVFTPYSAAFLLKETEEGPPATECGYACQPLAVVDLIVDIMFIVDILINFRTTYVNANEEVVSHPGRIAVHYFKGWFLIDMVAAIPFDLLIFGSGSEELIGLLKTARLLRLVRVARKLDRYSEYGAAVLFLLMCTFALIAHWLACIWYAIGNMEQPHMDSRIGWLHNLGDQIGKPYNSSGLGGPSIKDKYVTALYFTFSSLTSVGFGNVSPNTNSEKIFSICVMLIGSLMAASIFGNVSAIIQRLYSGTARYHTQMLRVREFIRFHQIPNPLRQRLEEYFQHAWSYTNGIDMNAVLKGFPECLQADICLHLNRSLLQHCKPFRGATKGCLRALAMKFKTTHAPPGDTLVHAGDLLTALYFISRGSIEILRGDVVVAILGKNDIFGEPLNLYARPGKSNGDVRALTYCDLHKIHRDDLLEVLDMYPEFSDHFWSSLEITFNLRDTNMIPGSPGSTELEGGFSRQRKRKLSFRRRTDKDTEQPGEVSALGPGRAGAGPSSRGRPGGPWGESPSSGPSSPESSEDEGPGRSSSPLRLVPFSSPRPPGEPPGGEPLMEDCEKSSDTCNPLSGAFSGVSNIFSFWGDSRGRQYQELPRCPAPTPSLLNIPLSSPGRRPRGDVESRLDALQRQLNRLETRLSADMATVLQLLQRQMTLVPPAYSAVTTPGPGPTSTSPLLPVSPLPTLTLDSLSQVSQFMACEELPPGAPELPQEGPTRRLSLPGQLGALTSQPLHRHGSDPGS

CCCCCCC[N+](CC)(CC)CCCCc1ccc(Cl)cc1 [Clofilium]
IC50 [1, 6]: 30 nM

O=C1Cc2cc(CCN3CCN(c4nsc5ccccc45)CC3)c(Cl)cc2N1 [Ziprasidone]
IC50 ([3]; HEK293, 37 °C, read-out: WT IC50): 120 nM
IC50 [1]: 2800 nM
IC50 fold increase (mutant IC50/WT IC50), Y652A [4]: 140 fold
IC50 fold increase (mutant IC50/WT IC50), F656A [5]: 357 fold

CCCCc1oc2ccccc2c1C(=O)c1cc(I)c(OCCNCC)c(I)c1 [desethyl-amiodarone]
IC50 ([3]; metabolite DEA, read-out: IhERG IC50): ~160 nM
